Key:
[1] = target: T1, SsbA (SaSsbA), single-stranded DNA-binding protein (Staphylococcus aureus, UniProt A0A0D1JHQ1, R18A); assay: intrinsic fluorescence quenching titration
T1 construct: gene ssb; recombinant His-tagged SaSsbA R18A (pET21b)
T1 sequence (A0A0D1JHQ1 1-167 R18A): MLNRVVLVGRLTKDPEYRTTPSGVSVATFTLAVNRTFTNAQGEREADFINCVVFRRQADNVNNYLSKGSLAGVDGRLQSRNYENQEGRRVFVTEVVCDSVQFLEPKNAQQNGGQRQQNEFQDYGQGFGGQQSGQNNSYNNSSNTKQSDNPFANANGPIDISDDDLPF

[2] = target: T2, SsbA (SaSsbA), single-stranded DNA-binding protein (Staphylococcus aureus, UniProt A0A0D1JHQ1); assay: crystal structure ([…] Å) and intrinsic fluorescence quenching titration
T2 construct: gene ssb; recombinant His-tagged SaSsbA (167 aa, pET21b); aa 105–167 not observed in the crystal structure

With `O=c1[nH]cc(F)c(=O)[nH]1` [5-FU, 5-fluorouracil] as the compound, how does the Kd [1] read?
The Kd was 498 ± 13.5 µM.

And the Kd [2]?
The Kd was 55.9 ± 0.7 µM.
